{
  "source": "paper PMC3988658",
  "about": "(Pathogens and disease, 2014)",
  "key": {"[1]": {"test_system": "C. albicans tet-NRG1 strain filamentation", "assay_type": "cell-based, Candida albicans", "settings": "YPD plus DOX, dose response"}, "[2]": {"test_system": "Human hepatocellular carcinoma (HepG2) cells"}, "in vitro": {"experiment": "in vitro", "settings": "human"}, "[3]": {"test_system": "C. albicans wild-type strain SC5314 biofilm formation", "experiment": "microbe, parasite or virus in culture", "assay_type": "cell-based, Candida albicans", "settings": "for IC50: SC5314, 24 h; for Inhibition of biofilm formation: NCI Natural set, dose response"}, "C. albicans": {"test_system": "C. albicans", "settings": "cited from earlier work"}},
  "note": "Starred links: 1 amine or outer side, 2 acyl side, 3 side chain; linkers in the order of their positions; H or OH if unused. Positions of bridges follow the written chain, without caps; N, C: chain ends. Non-standard residues stand in square brackets, D forms with d. Residues, ends and D or L forms follow the SMILES beside them. *: point of attachment. Ileψ(thiazoline)Cys = CC[C@H](C)[C@H](N)C1=N[C@H](C(=O)*)CS1; X2 = CCC(=O)CC(O)C[C@@H](C)C[C@H](N[*:1])C(=O)[*:2]; Alaψ(CH2NMeCH2CH2OH) = C[C@@H](CN(C)CCO)N*; dOrn = NCCC[C@@H](N)C(=O)O; X1 = CCCCCCCCC(C)C(=O)*; Aib = CC(C)(N)C(=O)O",
  "data": [
    {"compound": "CC(=O)O[C@@H]1C[C@H]2O[C@@H]3C=C(C)CC[C@]3(C)[C@]1(C)[C@]21CO1", "note": "[Compound 1, Trichoderonin]", "values": [
      {"measurement": "Inhibition of filamentation", "setting": "[1]", "value": "inhibited filamentation in a dose-response manner"}
    ]},
    {"compound": "CCCCCCCCCCCCCCC[C@@H](O)C[N+](C)(C)CCO", "note": "[Compound 21, 2-hydroxyethyl-[(2R)-2-hydroxyheptadecyl]-dimethylazanium;iodide]", "values": [
      {"measurement": "CC50", "setting": "[2]", "value": 10000, "unit": "nM"}
    ]},
    {"compound": "COc1cc2cc(C(=O)N3CC(COS(C)(=O)=O)c4ccc(O)cc43)[nH]c2c(OC)c1OC", "note": "(stereo not drawn) [Compound 27, 6-Hydroxy-3-((methanesulfonyloxy) Methyl)-1-((5,6,7-trimethoxyindol-2-yl)carbonyl)indoline]", "values": [
      {"measurement": "CC50", "setting": "in vitro", "value": "< 1560", "unit": "nM"},
      {"measurement": "IC50", "setting": "[3]; Candida albicans", "value": 495, "unit": "nM"}
    ]},
    {"compound": "CC(C)[C@@H]1NC(=O)[C@H](C)OC(=O)[C@@H](C(C)C)NC(=O)[C@@H](C(C)C)OC(=O)[C@H](C(C)C)NC(=O)[C@H](C)OC(=O)[C@@H](C(C)C)NC(=O)[C@@H](C(C)C)OC(=O)[C@H](C(C)C)NC(=O)[C@H](C)OC(=O)[C@@H](C(C)C)NC(=O)[C@@H](C(C)C)OC1=O", "note": "[Compound 6, Valinomycin]", "values": [
      {"measurement": "Inhibition of hyphal growth", "setting": "C. albicans; C. albicans, ref Watanabe, Azuma, Igarashi & Ooshima, 2005", "value": "inhibit hyphal growth"},
      {"measurement": "CC50", "setting": "in vitro", "value": 2870, "unit": "nM"},
      {"measurement": "Inhibition of biofilm formation", "setting": "[3]", "value": "inhibited biofilm formation only"}
    ]},
    {"compound": "Nanaomycin [Compound 3]", "values": [
      {"measurement": "Inhibition of filamentation", "setting": "[1]", "value": "inhibited filamentation in a dose-response manner"}
    ]},
    {"compound": "N#Cc1cn([C@@H]2O[C@H](CO)[C@@H](O)[C@H]2O)c2ncnc(N)c12", "note": "[Compound 23, Vengicide (Unamycin B, Toyocamycin)]", "values": [
      {"measurement": "CC50", "setting": "in vitro", "value": "< 1560", "unit": "nM"},
      {"measurement": "IC50", "setting": "[3]; Candida albicans", "value": 1040, "unit": "nM"}
    ]},
    {"compound": "CCCCCCCCC(C)C(=O)N1CCC[C@H]1C(=O)N[C@@H](C[C@H](C)CC(O)CC(=O)CC)C(=O)N[C@@H](C)C(=O)NC(C)(C)C(=O)NC(C)(C)C(=O)N[C@H](C(=O)N[C@@H](C)C(=O)NC(C)(C)C(=O)NC(C)(C)C(=O)N[C@@H](C)CN(C)CCO)C(C)C", "note": "(stereo partly drawn) [Compound 19, Trichopolyn-B] (X1-P[X2]A[Aib][Aib]VA[Aib][Aib]-{Alaψ(CH2NMeCH2CH2OH)}; N-terminus and C-terminus assumed)", "values": [
      {"measurement": "CC50", "setting": "in vitro", "value": 2990, "unit": "nM"},
      {"measurement": "IC50", "setting": "[3]", "value": 666, "unit": "nM"}
    ]},
    {"compound": "CO[C@H]1C[C@@H]2CC[C@@H](C)[C@@](O)(O2)C(=O)C(=O)N2CCCC[C@H]2C(=O)O[C@H]([C@H](C)C[C@@H]2CC[C@@H](O)[C@H](OC)C2)CC(=O)[C@H](C)/C=C(\\C)[C@@H](O)[C@@H](OC)C(=O)[C@H](C)C[C@H](C)/C=C/C=C/C=C/1C", "note": "[Compound 5, Rapamune (rapamycin, sirolimus)]", "values": [
      {"measurement": "Effect on the morphogenic transition", "setting": "C. albicans; most liquid hypha-inducing media, ref Bastidas, Heitman & Cardenas, 2009", "value": "no effect on the morphogenic transition"},
      {"measurement": "Inhibition of filamentation", "setting": "[1]", "value": "inhibited filamentation in a dose-response manner"},
      {"measurement": "IC50", "setting": "[3]; Candida albicans", "value": 514, "unit": "nM"}
    ]},
    {"compound": "CC(NCCN(C)C)C1CCC2C3CCc4cc(O)ccc4C3CCC12C", "note": "(stereo not drawn) [Compound 8, 17-[1-[2-(dimethylamino)ethylamino]ethyl]-13-methyl-6,7,8,9,11,12,14,15, 16,17-decahydrocyclopenta[a]phenanthren-3-ol]", "values": [
      {"measurement": "CC50 at 24 h", "setting": "in vitro", "value": 8080, "unit": "nM"},
      {"measurement": "IC50", "setting": "[3]; Candida albicans", "value": 9.7, "unit": "nM"}
    ]},
    {"compound": "CC1OC(CC(=O)O)Cc2c(O)c3c(c(O)c21)C(=O)C=C(C1=CC(=O)c2c(O)c4c(c(O)c2C1=O)CC(CC(=O)O)OC4C)C3=O", "note": "(stereo not drawn) [Compound 13, 2-[7-[3-(carboxymethyl)-5,10-dihydroxy-1-methyl-6,9-dioxo-3,4-dihydro-1H-benzo[g]isochromen-7-yl]-5,10-dihydroxy-1-methyl-6,9-dioxo-3,4-dihydro-1H-benzo[g]isochromen-3-yl]acetic acid]", "values": [
      {"measurement": "IC50", "setting": "[3]; Candida albicans", "value": 3310, "unit": "nM"}
    ]},
    {"compound": "CCCCCCCCCCCCCCC(O)C[N+](C)(CCO)CCO", "note": "(stereo not drawn) [Compound 29, Hexadecanaminium, 2-hydroxy-N,N-bis(2-hydroxyethyl)-N-methyl-, chloride]", "values": [
      {"measurement": "CC50", "setting": "[2]", "value": 13900, "unit": "nM"}
    ]},
    {"compound": "CC[C@H](C)[C@H](N)C1=N[C@H](C(=O)N[C@@H](CC(C)C)C(=O)N[C@H](CCC(=O)O)C(=O)N[C@H](C(=O)N[C@H]2CCCCNC(=O)[C@H](CC(N)=O)NC(=O)[C@@H](CC(=O)O)NC(=O)[C@H](Cc3cnc[nH]3)NC(=O)[C@@H](Cc3ccccc3)NC(=O)[C@H]([C@@H](C)CC)NC(=O)[C@@H](CCCN)NC2=O)[C@@H](C)CC)CS1", "note": "[Compound 4, Bacitracin] ({Ileψ(thiazoline)Cys}-L[dE]IK[dOrn]I[dF]H[dD]N; lactam 4-C (inferred))", "values": [
      {"measurement": "CC50 at 24 hr", "setting": "in vitro", "value": "> 100000", "unit": "nM"}
    ]},
    {"compound": "CC[C@H](C)[C@H](N)C1=N[C@H](C(=O)N[C@@H](CC(C)C)C(=O)N[C@H](CCC(=O)O)C(=O)N[C@H](C(=O)N[C@H]2CCCCNC(=O)[C@H](CC(N)=O)NC(=O)[C@@H](CC(=O)O)NC(=O)[C@H](Cc3c[nH]cn3)NC(=O)[C@@H](Cc3ccccc3)NC(=O)[C@H]([C@@H](C)CC)NC(=O)[C@@H](CCCN)NC2=O)[C@@H](C)CC)CS1", "note": "[Compound 4, Bacitracin] ({Ileψ(thiazoline)Cys}-L[dE]IK[dOrn]I[dF]H[dD]N; lactam 4-C; N-terminus assumed)", "values": [
      {"measurement": "Inhibition of biofilm formation", "setting": "[3]", "value": "inhibited biofilm formation only"},
      {"measurement": "IC50", "setting": "[3]", "value": 2130, "unit": "nM"}
    ]},
    {"compound": "COc1ccc(C[C@H]2NC[C@H](O)[C@H]2OC(C)=O)cc1", "note": "[Compound 2, Anisomycin]", "values": [
      {"measurement": "Inhibition of biofilm formation", "setting": "[3]", "value": "inhibited biofilm formation only"}
    ]},
    {"compound": "CCN(CC)CCN1c2ccccc2Sc2ccc3ccccc3c21", "note": "[Compound 14, 2-benzo[a]phenothiazin-12-yl-N,N-diethylethanamine]", "values": [
      {"measurement": "IC50", "setting": "[3]; Candida albicans", "value": 3800, "unit": "nM"}
    ]}
  ]
}
